Results as given in patent US20230398130A1, “METHODS AND COMPOSITIONS FOR DIFFERENTIATING STEM CELLS” (Massachusetts Institute of Technology, priority 2020, published 2023).

What was measured:
[1] = system: ISC-enriched organoids; experiment: Primary screen, 384-well 2.5-D organoid differentiation (ENR+CD, 6 days, Target Selective Inhibitor Library, vs whole-plate median): ATP (CellTiter-Glo 3D, CTG); conditions: primary screen; for Dose.FC.CTG: FC vs plate median; for SSMD.CTG: strictly standardized mean difference
[2] = system: ISC-enriched organoids; experiment: Primary screen, 384-well 2.5-D organoid differentiation (ENR+CD, 6 days): basal lysozyme secretion (LYZ.NS); type: cell-based, murine; conditions: primary screen; for Dose.FC.LYZ.NS: FC vs plate median; for SSMD.LYZ.NS: strictly standardized mean difference
Source text: (§1) High-throughput screening.

[3] = system: ISC-enriched organoids; experiment: Primary screen, 384-well 2.5-D organoid differentiation (ENR+CD, 6 days): carbachol-induced lysozyme secretion (LYZ.S); type: cell-based, murine; conditions: primary screen; for Dose.FC.LYZ.S: FC vs plate median; for Z.LYZ.S: standard z score; for SSMD.LYZ.S: strictly standardized mean difference
Source text: as §1

[4] = Dose 10.00 uM, standard z score
[5] = 1st of the 4 dose lines of the treatment (dose not given)
[6] = 2nd of the 4 dose lines of the treatment (dose not given)
[7] = 3rd of the 4 dose lines of the treatment (dose not given)
[8] = 4th of the 4 dose lines of the treatment (dose not given)
[9] = dose 0.08 uM, standard z score of FC
[10] = dose 0.40 uM, standard z score of FC
[11] = dose 2.00 uM, standard z score of FC
[12] = dose 10.00 uM, standard z score of FC

Cc1noc(-c2ccc(CSCCC(=O)O)cc2)c1NC(=O)OC(C)c1ccccc1Cl (stereo not shown) [Ki16425]
Dose.FC.CTG ([1]; Dose 0.08 uM): −0.051 log 2 fold change
Z.CTG ([1]; Dose 0.08 uM, standard z score): −0.121
Dose.FC.CTG ([1]; Dose 0.40 uM): −0.002 log 2 fold change
Z.CTG ([1]; Dose 0.40 uM, standard z score): −0.005
Dose.FC.CTG ([1]; Dose 2.00 uM): −0.078 log 2 fold change
Z.CTG ([1]; Dose 2.00 uM, standard z score): −0.185
Dose.FC.CTG ([1]; Dose 10.00 uM): −0.165 log 2 fold change
Z.CTG [1, 4]: −0.394
SSMD.CTG [1, 5]: −0.145
SSMD.CTG [1, 6]: −0.008
SSMD.CTG [1, 7]: −0.226
SSMD.CTG [1, 8]: −0.527
Dose.FC.LYZ.NS ([2]; Dose 0.08 uM): 0.001 log 2 fold change
Z.LYZ.NS ([2]; Dose 0.08 uM, standard z score): 0.005
Dose.FC.LYZ.NS ([2]; Dose 0.40 uM): 0.117 log 2 fold change
Z.LYZ.NS ([2]; Dose 0.40 uM, standard z score): 1.017
Dose.FC.LYZ.NS ([2]; Dose 2.00 uM): −0.008 log 2 fold change
Z.LYZ.NS ([2]; Dose 2.00 uM, standard z score): −0.069
Dose.FC.LYZ.NS ([2]; Dose 10.00 uM): −0.038 log 2 fold change
Z.LYZ.NS [2, 4]: −0.327
SSMD.LYZ.NS [2, 5]: 0.006
SSMD.LYZ.NS [2, 6]: 0.483
SSMD.LYZ.NS [2, 7]: −0.072
SSMD.LYZ.NS [2, 8]: −0.246
Dose.FC.LYZ.S ([3]; Dose 0.08 uM): 0.022 log 2 fold change
Dose.FC.LYZ.S ([3]; Dose 0.40 uM): 0.114 log 2 fold change
Dose.FC.LYZ.S ([3]; Dose 2.00 uM): −0.021 log 2 fold change
Dose.FC.LYZ.S ([3]; Dose 10.00 uM): −0.071 log 2 fold change
Z.LYZ.S [3, 5]: 0.142
Z.LYZ.S [3, 6]: 0.739
Z.LYZ.S [3, 7]: −0.135
Z.LYZ.S [3, 8]: −0.459
SSMD.LYZ.S [3, 5]: 0.130
SSMD.LYZ.S [3, 6]: 0.421
SSMD.LYZ.S [3, 7]: −0.133
SSMD.LYZ.S [3, 8]: −0.394

O=C(O)CNC(=O)c1c(O)c2ccccc2n(Cc2ccccc2)c1=O [IOX2]
Dose.FC.CTG ([1]; Dose 0.08 uM): 0.149 log 2 fold change
Z.CTG ([1]; Dose 0.08 uM, standard z score): 0.356
Dose.FC.CTG ([1]; Dose 0.40 uM): 0.078 log 2 fold change
Z.CTG ([1]; Dose 0.40 uM, standard z score): 0.185
Dose.FC.CTG ([1]; Dose 2.00 uM): 0.097 log 2 fold change
Z.CTG ([1]; Dose 2.00 uM, standard z score): 0.232
Dose.FC.CTG ([1]; Dose 10.00 uM): 0.001 log 2 fold change
Z.CTG [1, 4]: 0.002
SSMD.CTG [1, 5]: 0.501
SSMD.CTG [1, 6]: 0.264
SSMD.CTG [1, 7]: 0.287
SSMD.CTG [1, 8]: 0.003
Dose.FC.LYZ.NS ([2]; Dose 0.08 uM): 0.029 log 2 fold change
Z.LYZ.NS ([2]; Dose 0.08 uM, standard z score): 0.254
Dose.FC.LYZ.NS ([2]; Dose 0.40 uM): 0.028 log 2 fold change
Z.LYZ.NS ([2]; Dose 0.40 uM, standard z score): 0.246
Dose.FC.LYZ.NS ([2]; Dose 2.00 uM): 0.043 log 2 fold change
Z.LYZ.NS ([2]; Dose 2.00 uM, standard z score): 0.376
Dose.FC.LYZ.NS ([2]; Dose 10.00 uM): −0.045 log 2 fold change
Z.LYZ.NS [2, 4]: −0.388
SSMD.LYZ.NS [2, 5]: 0.296
SSMD.LYZ.NS [2, 6]: 0.182
SSMD.LYZ.NS [2, 7]: 0.408
SSMD.LYZ.NS [2, 8]: −0.420
Dose.FC.LYZ.S ([3]; Dose 0.08 uM): 0.047 log 2 fold change
Dose.FC.LYZ.S ([3]; Dose 0.40 uM): 0.071 log 2 fold change
Dose.FC.LYZ.S ([3]; Dose 2.00 uM): 0.001 log 2 fold change
Dose.FC.LYZ.S ([3]; Dose 10.00 uM): −0.049 log 2 fold change
Z.LYZ.S [3, 5]: 0.305
Z.LYZ.S [3, 6]: 0.456
Z.LYZ.S [3, 7]: 0.005
Z.LYZ.S [3, 8]: −0.314
SSMD.LYZ.S [3, 5]: 0.359
SSMD.LYZ.S [3, 6]: 0.428
SSMD.LYZ.S [3, 7]: 0.006
SSMD.LYZ.S [3, 8]: −0.298

CN1CCCCC1Cn1cc(C(=O)c2cc([N+](=O)[O-])ccc2I)c2ccccc21 (stereo not shown) [AM1241]
Dose.FC.CTG ([1]; dose 0.08 uM, ENR+CD 6 days): 0.159 log 2 fold change
Z.CTG [1, 9]: 0.379
Dose.FC.CTG ([1]; dose 0.40 uM, ENR+CD 6 days): −0.054 log 2 fold change
Z.CTG [1, 10]: −0.129
Dose.FC.CTG ([1]; dose 2.00 uM, ENR+CD 6 days): −0.062 log 2 fold change
Z.CTG [1, 11]: −0.147
Dose.FC.CTG ([1]; dose 10.00 uM, ENR+CD 6 days): −0.001 log 2 fold change
Z.CTG [1, 12]: −0.002
Dose.FC.LYZ.NS ([2]; dose 0.08 uM, ENR+CD 6 days): 0.052 log 2 fold change
Z.LYZ.NS [2, 9]: 0.454
Dose.FC.LYZ.NS ([2]; dose 0.40 uM, ENR+CD 6 days): 0.004 log 2 fold change
Z.LYZ.NS [2, 10]: 0.035
Dose.FC.LYZ.NS ([2]; dose 2.00 uM, ENR+CD 6 days): −0.014 log 2 fold change
Z.LYZ.NS [2, 11]: −0.123
Dose.FC.LYZ.NS ([2]; dose 10.00 uM, ENR+CD 6 days): −0.003 log 2 fold change
Z.LYZ.NS [2, 12]: −0.028
Dose.FC.LYZ.S ([3]; dose 0.08 uM, ENR+CD 6 days): 0.046 log 2 fold change
Dose.FC.LYZ.S ([3]; dose 0.40 uM, ENR+CD 6 days): 0.088 log 2 fold change
Dose.FC.LYZ.S ([3]; dose 2.00 uM, ENR+CD 6 days): −0.017 log 2 fold change
Dose.FC.LYZ.S ([3]; dose 10.00 uM, ENR+CD 6 days): −0.080 log 2 fold change

O=C(/C=C/c1cccc(S(=O)(=O)Nc2ccccc2)c1)NO [Belinostat (PXD101)]
Dose.FC.CTG ([1]; dose 0.08 uM, ENR+CD 6 days): −0.227 log 2 fold change
Z.CTG [1, 9]: −0.543
Dose.FC.CTG ([1]; dose 0.40 uM, ENR+CD 6 days): −0.055 log 2 fold change
Z.CTG [1, 10]: −0.133
Dose.FC.CTG ([1]; dose 2.00 uM, ENR+CD 6 days): −0.782 log 2 fold change
Z.CTG [1, 11]: −1.868
Dose.FC.CTG ([1]; dose 10.00 uM, ENR+CD 6 days): −1.122 log 2 fold change
Z.CTG [1, 12]: −2.679
Dose.FC.LYZ.NS ([2]; dose 0.08 uM, ENR+CD 6 days): 0.008 log 2 fold change
Z.LYZ.NS [2, 9]: 0.067
Dose.FC.LYZ.NS ([2]; dose 0.40 uM, ENR+CD 6 days): 0.129 log 2 fold change
Z.LYZ.NS [2, 10]: 1.125
Dose.FC.LYZ.NS ([2]; dose 2.00 uM, ENR+CD 6 days): −0.173 log 2 fold change
Z.LYZ.NS [2, 11]: −1.510
Dose.FC.LYZ.NS ([2]; dose 10.00 uM, ENR+CD 6 days): −0.196 log 2 fold change
Z.LYZ.NS [2, 12]: −1.709
Dose.FC.LYZ.S ([3]; dose 0.08 uM, ENR+CD 6 days): −0.059 log 2 fold change
Dose.FC.LYZ.S ([3]; dose 0.40 uM, ENR+CD 6 days): 0.042 log 2 fold change
Dose.FC.LYZ.S ([3]; dose 2.00 uM, ENR+CD 6 days): −0.264 log 2 fold change
Dose.FC.LYZ.S ([3]; dose 10.00 uM, ENR+CD 6 days): −0.327 log 2 fold change
